# According to patent US7538129B2, “Diazonamide A analog” (Board of Regents, The University of Texas System, priority 2005, dated 2009):
# Key:
# MDA-MB-231 = test: growth inhibition (GI50) of tumor cell lines; format: cell-based; details: MDA-MB-231, FIG. 1
# Method: A number of tumor cell lines representing breast, lung, colon, ovarian and prostate cancer as well as melanoma were assayed under standard growth conditions in presence of varying amounts of diazonamide A, a hydroxylated form of Compound J, Compound J, paclitaxel and vinblastine. The results are graphed as the concentration that diminishes growth by a factor of two (GI50) in FIG. 1.
# HCT116 xenografts = test: growth inhibition of HCT116 xenografts; format: in vivo, mice; details: HCT116 (colon), 0.45 mg/kg, IP
# Method: Details of the preparation of murine models containing xenografts of HCT116 cells or PC-3 cells are described in the section following these examples. After the tumors were grown, therapy utilizing Compound J or paclitaxel was initiated. […] In FIG. 4A, the *'s represent control mice, the squares represent 5 mg/kg Compound J; the diamonds represent 20 mg/kg Compound J; and the slanted line represents 20 mg/kg paclitaxel.
# The details of the protocol for Examples 19 and 20 are as follows:
# • PC3 prostrate tumor cells and HCT116 colon tumor cells (acquired from the tumor repository Division of Cancer Treatment and Diagnosis (DCTD) of the NCI • Complete RPMI Media • RPMI (Cat# 11875-085, Invitrogen) • 10% Heat-inactivated (30′ 56° C.) Fetal Bovine Serum (Cat# 100-106, Gemini Bio-Products • 2 mM L-glutamine (Cat# 25030-081, Invitrogen) • 0.1 mM MEM Non-Essential Amino Acids Solution (Cat#11140-050, Invitrogen) • 10 U/ml Penicillin/10 μg/ml Streptomycin (Cat#15140-122, Invitrogen) • 1 mM Sodium Pyruvate (Cat#l 1360-070) • Trypsin-EDTA (Cat#25300-054, Invitrogen) • Ca^2+/Mg^2+-free Phosphate Buffered Saline, 5% dextrose in water • Cell Culture Dish 150 mm×25 mm (Cat# 430599, Coming, Inc.) • 10 and 25 ml pipets, standard pipet-aid, p200 and p1000 pipette tips and standard pipetmen • Athymic NCr-nu/nu nude mice at 6-12 weeks of age, either sex (Strain code: 01B74, NCI Frederick Animal Production Program—suppliers include Charles River Labs and Taconic Farms). Female mice of approximately 7 weeks of age were utilized for existing experiments. • Standard 1 cc tuberculin syringe, 30G½ and 25G⅝ needles (Becton Dickinson) • Falcon 5 ml tubes (Cat#352054) • 50 and 15 ml disposable plastic conical tubes (Falcon or similar vendor) • Trypan Blue Solution (0.4%) (Cat#T8154, Sigma) • Hausser phase contrast hemacytometer (Cat# 02-671-54, Fisher) • Ice bucket • Balance for weighing mice (accurate to 0.2 g) • Vernier calipers • Vivarium facility free from known pathogens (nude mice should be housed in isolation from conventional mice if possible—separate rooms or micro-isolator cages equipped with individual air flow; all animal housing, bedding, water should be autoclaved prior to use; standard irradiated mouse chow should be used; animals should be changed out of cages within laminar flow hood; investigators handling mice should be suitably garbed—disposable gown, bonnet, booties, gloves, mask) • AB-5 (Compound J) compound • Ethyl alcohol, 200 proof (Aaper, MFD 041205) • Cremaphor (Cat# C5135, Sigma) • Paclitaxel (Cat#ANP0010, Polymed Therapeutics) Procedure: • 1) Rapidly thaw PC3 or HCT116 cells (if necessary) in 37° C. water bath. Transfer contents to 9ml complete RPMI media. Spin 5′ at 1200 rpm (240 Xg). Discard media and resuspend pellet in 8 ml complete RPMI media. Plate in 100 mm×25 mm cell culture dish in 5% CO2, 37° C. humidified incubator. • 2) Allow to grow for 5-10 days, splitting (aspirate media, wash with 3-5 ml PBS, add 1 ml trypsin-EDTA, incubate 3-5′ at 37° C., add media to desired volume and transfer to multiple plates) 1:8 to 1:10 every 3-4 days as necessary to allow cells to enter phase of logarithmic growth. • 3) When cells are growing well, begin to expand to 150 mm×25 mm dishes. We use 20 ml of media in a 150 mm dish and use 2 ml of trypsin for splitting. When nearly confluent, there should be 2×10^7 cells/150 mm dish. • 4) Plan ahead to time arrival of nu/nu mice such that they can acclimate to animal facility for 1 week prior to injection of tumor cells. […] Plan to inject 10 million cells/mouse and allow for loss of cells/volume during injection process. That is, if 30 mice are to be injected, plan to harvest cells sufficient for at least 35 injections—35×10 million cells=3.5×10^8 cells. In the existing HCT116 experiment, 7.5×10^6 cells were injected per mouse. Five mice per group were utilized for AB-5 treatment and four mice per group were utilized for the control and paclitaxel treatments. […]
# [1] = test system: MDA-MB-435 (breast) xenografts; test: growth inhibition of MDA-MB-435 xenografts; format: in vivo, mice; details: 0.7 mg/kg, IP
smiles,measurement,setting,value
CC(C)[C@H](O)C(=O)N[C@H]1Cc2ccc3c(c2)[C@]24C5=C(N=C(O5)[C@H](C(C)C)NC1=O)c1nc(Cl)c(o1)-c1c(Cl)[nH]c5cccc(c15)-c1cccc2c1N[C@@H]4O3 [diazonamide A],GI50 (concentration that diminishes growth by a factor of two),MDA-MB-231,more effective than the remaining drugs
"CC[C@]1(O)C[C@@H]2CN(CCc3c([nH]c4ccccc34)[C@@](C(=O)OC)(c3cc4c(cc3OC)N(C)[C@H]3[C@@](O)(C(=O)OC)[C@H](OC(C)=O)[C@]5(CC)C=CCN6CC[C@]43[C@@H]65)C2)C1 [vinblastine, reference compound]",GI50 (concentration that diminishes growth by a factor of two),MDA-MB-231,more effective than the remaining drugs
same,#Tumor Free (day),HCT116 xenografts,0/5
same,% Max T/C,HCT116 xenografts,56.0%
same,Log10 Tumor Cell Kill,HCT116 xenografts,0.2
same,#Tumor Free (day),[1],0/6
